Data set [1] is described as follows: Stability of human Adrenomedullin in human Citrate plasma at 24° C., quantified by hADM immunoassay (MR-ADM/CT-ADM). The class given is in vitro ADME. The following applies: for Average ADM recovery (N = 5) / Loss of immune reactivity %/h: human Citrate plasma; for Average ADM recovery (N = 5): 10 ng ADM/ml; for Average loss of immune reactivity: average over time points, human plasma, MR-ADM/CT-ADM sandwich assay. The procedure:
At selected time points, aliquots were frozen at −20° C.

The conditions of data set [2]: using other assay methods (Hinson 2000); cited from earlier work.

We go through one compound from patent publication US11726101B2, “Adrenomedullin assays and methods for determining mature adrenomedullin” (SPHINGOTEC GMBH, priority 2011, dated 2023).

Structures are written as SMILES.

For the compound `CC[C@H](C)[C@H](NC(=O)[C@H](CCC(N)=O)NC(=O)[C@H](Cc1c[nH]cn1)NC(=O)[C@H](C)NC(=O)[C@H](CC(C)C)NC(=O)[C@H](CCCCN)NC(=O)[C@H](CCC(N)=O)NC(=O)[C@@H](NC(=O)[C@@H](NC(=O)[C@@H]1CSSC[C@H](NC(=O)CNC(=O)[C@H](Cc2ccccc2)NC(=O)[C@H](CO)NC(=O)[C@H](CCCNC(=N)N)NC(=O)[C@H](CC(C)C)NC(=O)CNC(=O)[C@H](CCC(N)=O)NC(=O)[C@H](Cc2ccccc2)NC(=O)[C@H](CC(N)=O)NC(=O)[C@H](CC(N)=O)NC(=O)[C@H](CCSC)NC(=O)[C@H](CO)NC(=O)[C@H](CCC(N)=O)NC(=O)[C@H](CCCNC(=N)N)NC(=O)[C@@H](N)Cc2ccc(O)cc2)C(=O)N[C@@H](CCCNC(=N)N)C(=O)N[C@@H](Cc2ccccc2)C(=O)NCC(=O)N[C@@H]([C@@H](C)O)C(=O)N1)[C@@H](C)O)C(C)C)C(=O)N[C@@H](Cc1ccc(O)cc1)C(=O)N[C@@H](CCC(N)=O)C(=O)N[C@@H](Cc1ccccc1)C(=O)N[C@H](C(=O)N[C@@H](CC(=O)O)C(=O)N[C@@H](CCCCN)C(=O)N[C@@H](CC(=O)O)C(=O)N[C@@H](CCCCN)C(=O)N[C@@H](CC(=O)O)C(=O)N[C@@H](CC(N)=O)C(=O)N[C@H](C(=O)N[C@@H](C)C(=O)N1CCC[C@H]1C(=O)N[C@@H](CCCNC(=N)N)C(=O)N[C@@H](CO)C(=O)N[C@@H](CCCCN)C(=O)N[C@H](C(=O)N[C@@H](CO)C(=O)N1CCC[C@H]1C(=O)N[C@@H](CCC(N)=O)C(=O)NCC(=O)N[C@@H](Cc1ccc(O)cc1)C(N)=O)[C@@H](C)CC)C(C)C)[C@@H](C)O` [hADM], the “Average ADM recovery (N = 5)” value in data set [1] (0 h) is listed as 100; in data set [1] (2 h) it was 99.2; in data set [1] (4 h), 96.4; in data set [1] (8 h) it was 88.2. Also, the “Loss of immune reactivity %/h” value in data set [1] (2 h) was 0.4 %/h; in data set [1] (4 h) it was 0.8 %/h; in data set [1] (8 h) it was 1.5 %/h. Further, the “Average loss of immune reactivity” value in data set [1] was “Average: 0.9%/h”; in data set [1] (listed as ADM) it was 0.9 %/h. Besides, in data set [2], the plasma half life is 22 min.
